Source: PubChem BioAssay AID330 (DTP/NCI, 2004)
Values joined by “and” are separate entries in the source; they are usually repeats but may differ in a detail not shown here. Identical values can stand only once. Toxic doses and inconclusive results are not listed.

Test system: P388 leukemia ip, CD2F1 mice, survival T/C
Assay: NCI In Vivo Anticancer Drug Screen. Data for tumor model P388 Leukemia (intraperitoneal) in CD2F1 (CDF1) mice
Details: endpoint: median survival time, higher = longer survival
Summary of the method: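 Mice carrying the transplanted tumor received test compound or vehicle. Survival was recorded in each group, and the value is the treated-group measurement divided by that of the vehicle-treated control group.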

[1] = dose: 120.0 mg/kg/injection, schedule: Q01DX005 (ip), vehicle: saline with Tween-80
[2] = dose: 240.0 mg/kg/injection, schedule: Q01DX005 (ip), vehicle: saline with Tween-80
[3] = dose: 50.0 mg/kg/injection, schedule: Q01DX009 (ip), vehicle: saline with Tween-80
[4] = dose: 100.0 mg/kg/injection, schedule: Q01DX009 (ip), vehicle: saline with Tween-80
[5] = dose: 200.0 mg/kg/injection, schedule: Q01DX009 (ip), vehicle: saline with Tween-80
[6] = dose: 30.0 mg/kg/injection, schedule: Q01DX005 (ip), vehicle: Klucel (hydroxypropylcellulose) (HPC)
[7] = dose: 60.0 mg/kg/injection, schedule: Q01DX005 (ip), vehicle: Klucel (hydroxypropylcellulose) (HPC)
[8] = dose: 120.0 mg/kg/injection, schedule: Q01DX005 (ip), vehicle: Klucel (hydroxypropylcellulose) (HPC)
[9] = dose: 240.0 mg/kg/injection, schedule: Q01DX005 (ip), vehicle: Klucel (hydroxypropylcellulose) (HPC)
[10] = dose: 100.0 mg/kg/injection, schedule: Q04DX003 (ip), vehicle: Klucel (hydroxypropylcellulose) (HPC)
[11] = dose: 200.0 mg/kg/injection, schedule: Q04DX003 (ip), vehicle: Klucel (hydroxypropylcellulose) (HPC)
[12] = dose: 400.0 mg/kg/injection, schedule: Q04DX003 (ip), vehicle: Klucel (hydroxypropylcellulose) (HPC)

Oc1ccc(C/C=C/c2ccccc2)cc1O
T/C (dose: 2.5 mg/kg/injection, schedule: Q01DX009 (ip), vehicle: saline + alcohol): 104 % of control
T/C (dose: 5.0 mg/kg/injection, schedule: Q01DX009 (ip), vehicle: saline + alcohol): 104 % of control
T/C (dose: 10.0 mg/kg/injection, schedule: Q01DX009 (ip), vehicle: saline + alcohol): 101 % of control

O=S(=O)(Nc1ccc(Cl)cc1)c1ccc(F)cc1
T/C (dose: 60.0 mg/kg/injection, schedule: Q01DX005 (ip), vehicle: saline with Tween-80): 101 % of control
T/C [1]: 100 % of control
T/C [2]: 99 % of control

CN(C)c1ccc(N=Nc2ccc3c4c(cccc24)-c2ccccc2-3)cc1
T/C [3]: 104 % of control
T/C [4]: 96 % of control
T/C [5]: 115 % of control

CC(N)c1ccccc1 (centres undefined) (tested in a mixture with another compound)
T/C [3]: 104 % of control
T/C [4]: 99 % of control
T/C [5]: 99 % of control

O=C1CSC(C2CCCCC2)N1c1nncs1 (centres undefined)
T/C [6]: 100 % of control
T/C [7]: 100 % of control
T/C [8]: 101 % of control
T/C [9]: 107 % of control

Cc1cc2c(cc1C)NC1C(=O)C(c3ccc(Cl)c(Cl)c3)OC1=N2 (centres undefined)
T/C [6]: 91 % of control
T/C [7]: 91 % of control
T/C [8]: 93 % of control
T/C [9]: 86 % of control

c1ccc(C2=NNC(c3ccccn3)=C3CCCCCCC3=N2)nc1
T/C (dose: 5.3 mg/kg/injection, schedule: Q01DX009 (ip), vehicle: water): 110 % of control
T/C (dose: 8.0 mg/kg/injection, schedule: Q01DX009 (ip), vehicle: water): 112 % of control
T/C (dose: 12.0 mg/kg/injection, schedule: Q01DX009 (ip), vehicle: water): 112 % of control
T/C (dose: 18.0 mg/kg/injection, schedule: Q01DX009 (ip), vehicle: water): 110 % of control
T/C (dose: 25.0 mg/kg/injection, schedule: Q01DX009 (ip), vehicle: water): 111 % of control
T/C (dose: 50.0 mg/kg/injection, schedule: Q01DX009 (ip), vehicle: water): 117 % of control

CCOC(=O)Nc1ccc(Cl)cc1C(=O)c1ccccc1
T/C (dose: 45.0 mg/kg/injection, schedule: Q01DX009 (ip), vehicle: saline with Tween-80): 102 % of control
T/C (dose: 90.0 mg/kg/injection, schedule: Q01DX009 (ip), vehicle: saline with Tween-80): 100 % of control
T/C (dose: 180.0 mg/kg/injection, schedule: Q01DX009 (ip), vehicle: saline with Tween-80): 96 % of control

COc1cc(-c2cc(O)c(-c3ccc4ccccc4n3)c(=O)[nH]2)cc(OC)c1OC
T/C (dose: 0.93 mg/kg/injection, schedule: Q01DX005 (ip), vehicle: saline with Tween-80): 102 % of control
T/C (dose: 1.88 mg/kg/injection, schedule: Q01DX005 (ip), vehicle: saline with Tween-80): 98 % of control
T/C (dose: 3.75 mg/kg/injection, schedule: Q01DX005 (ip), vehicle: saline with Tween-80): 96 % of control
T/C [1]: 87 % of control
T/C [2]: 90 % of control

NC(Cc1ccc(OC2CCCC2)c(N(CCCl)CCCl)c1)C(=O)O (centres undefined)
T/C (dose: 7.5 mg/kg/injection, schedule: Q04DX003 (ip), vehicle: saline): 168 % of control
T/C (dose: 15.0 mg/kg/injection, schedule: Q04DX003 (ip), vehicle: saline): 168 % of control
T/C (dose: 30.0 mg/kg/injection, schedule: Q04DX003 (ip), vehicle: saline): 218 % of control

COc1cccc2c1C(=O)c1c(O)c3c(c(O)c1C2=O)CC(O)(/C(C)=N/NC(=O)c1cc(C(F)(F)F)cc(C(F)(F)F)c1)CC3OC1CC(N)C(O)C(C)O1 (centres undefined)
T/C (dose: 0.78 mg/kg/injection, schedule: Q01DX009 (ip), vehicle: water): 151 % of control
T/C (dose: 1.56 mg/kg/injection, schedule: Q01DX009 (ip), vehicle: water): 174 % of control
T/C (dose: 3.13 mg/kg/injection, schedule: Q01DX009 (ip), vehicle: water): 160 % of control and 185 % of control
T/C (dose: 6.25 mg/kg/injection, schedule: Q01DX009 (ip), vehicle: water): 93 % of control and 95 % of control

C/C(=N/NC(N)=O)c1cn[nH]c1C
T/C [7]: 117 % of control
T/C [8]: 124 % of control

Nc1ccccc1NC(=O)c1nc2ccccc2[nH]1
T/C [10]: 106 % of control
T/C [11]: 97 % of control
T/C [12]: 97 % of control

C[CH2][Sn]1([CH2]C)[O]C2C(OC)OC3COC(c4ccccc4)OC3C2[O]1 (centres undefined)
T/C (dose: 1.56 mg/kg/injection, schedule: Q04DX003 (ip), vehicle: saline): 101 % of control and 107 % of control
T/C (dose: 3.12 mg/kg/injection, schedule: Q04DX003 (ip), vehicle: saline): 104 % of control and 116 % of control
T/C (dose: 6.25 mg/kg/injection, schedule: Q04DX003 (ip), vehicle: saline): 101 % of control and 116 % of control and 117 % of control
T/C (dose: 12.5 mg/kg/injection, schedule: Q04DX003 (ip), vehicle: saline): 104 % of control and 116 % of control

CCC#CCC1(CC#CCC)CC1C (centres undefined)
T/C (dose: 50.0 mg/kg/injection, schedule: Q01DX005 (ip), vehicle: saline with Tween-80): 100 % of control
T/C (dose: 100.0 mg/kg/injection, schedule: Q01DX005 (ip), vehicle: saline with Tween-80): 99 % of control
T/C (dose: 200.0 mg/kg/injection, schedule: Q01DX005 (ip), vehicle: saline with Tween-80): 107 % of control

C=C1CC2(CCC3C4CC=C5CC(O)CCC5(C)C4CCC32C)OC1=O (centres undefined)
T/C [10]: 104 % of control
T/C [11]: 105 % of control
T/C [12]: 97 % of control

O=S1(=O)CCC2CCCCC2C1 (centres undefined)
T/C (dose: 6.25 mg/kg/injection, schedule: Q01DX009 (ip), vehicle: saline with Tween-80): 109 % of control
T/C (dose: 12.5 mg/kg/injection, schedule: Q01DX009 (ip), vehicle: saline with Tween-80): 100 % of control

C#CCCCCCC#CCCCCCC#CC(=O)O
T/C (dose: 100.0 mg/kg/injection, schedule: Q01DX001 (ip), vehicle: saline): 104 % of control
T/C (dose: 200.0 mg/kg/injection, schedule: Q01DX001 (ip), vehicle: saline): 101 % of control

CC(C)CC#N
T/C (dose: 25.0 mg/kg/injection, schedule: Q01DX009 (ip), vehicle: saline): 90 % of control
T/C (dose: 50.0 mg/kg/injection, schedule: Q01DX009 (ip), vehicle: saline): 100 % of control
T/C (dose: 100.0 mg/kg/injection, schedule: Q01DX009 (ip), vehicle: saline): 100 % of control

O=P(Oc1ccccc1)(Oc1ccccc1)C(Nc1ccc(C(F)(F)F)cc1)c1ccccc1 (centres undefined)
T/C (dose: 50.0 mg/kg/injection, schedule: Q01DX009 (ip), vehicle: Klucel (hydroxypropylcellulose) (HPC)): 99 % of control
T/C (dose: 100.0 mg/kg/injection, schedule: Q01DX009 (ip), vehicle: Klucel (hydroxypropylcellulose) (HPC)): 93 % of control
T/C (dose: 200.0 mg/kg/injection, schedule: Q01DX009 (ip), vehicle: Klucel (hydroxypropylcellulose) (HPC)): 86 % of control

COC1C/C(=N\O)C2OC(c3ccccc3)OCC2O1 (centres undefined)
T/C (dose: 1.56 mg/kg/injection, schedule: Q01DX009 (ip), vehicle: other): 96 % of control
T/C (dose: 3.13 mg/kg/injection, schedule: Q01DX009 (ip), vehicle: other): 104 % of control
T/C (dose: 6.25 mg/kg/injection, schedule: Q01DX009 (ip), vehicle: other): 106 % of control
T/C (dose: 12.5 mg/kg/injection, schedule: Q01DX009 (ip), vehicle: other): 92 % of control
T/C (dose: 25.0 mg/kg/injection, schedule: Q01DX009 (ip), vehicle: other): 101 % of control and 94 % of control
T/C (dose: 50.0 mg/kg/injection, schedule: Q01DX009 (ip), vehicle: other): 99 % of control
T/C (dose: 100.0 mg/kg/injection, schedule: Q01DX009 (ip), vehicle: other): 100 % of control
T/C (dose: 200.0 mg/kg/injection, schedule: Q01DX009 (ip), vehicle: other): 98 % of control
T/C (dose: 400.0 mg/kg/injection, schedule: Q01DX009 (ip), vehicle: other): 100 % of control

O=Cc1c(-c2ccccc2)nc2sccn12
T/C (dose: 50.0 mg/kg/injection, schedule: Q04DX003 (ip), vehicle: Klucel (hydroxypropylcellulose) (HPC)): 96 % of control
T/C (dose: 100.0 mg/kg/injection, schedule: Q01DX001 (ip), vehicle: Klucel (hydroxypropylcellulose) (HPC)): 100 % of control
T/C [10]: 96 % of control
T/C (dose: 200.0 mg/kg/injection, schedule: Q01DX001 (ip), vehicle: Klucel (hydroxypropylcellulose) (HPC)): 100 % of control
T/C [11]: 91 % of control
T/C (dose: 400.0 mg/kg/injection, schedule: Q01DX001 (ip), vehicle: Klucel (hydroxypropylcellulose) (HPC)): 99 % of control

CSCC1COC(=O)N1 (centres undefined)
T/C (dose: 100.0 mg/kg/injection, schedule: Q04DX002 (ip), vehicle: distilled water + alcohol): 100 % of control
T/C (dose: 200.0 mg/kg/injection, schedule: Q04DX002 (ip), vehicle: distilled water + alcohol): 106 % of control
T/C (dose: 400.0 mg/kg/injection, schedule: Q04DX002 (ip), vehicle: distilled water + alcohol): 100 % of control
